In assay [1] the target is T1, human SSTR3 (Homo sapiens (Human), UniProt P32745). Description: SSTR binding filtration assay (SSTR3). To be noted: (3-125I-Tyr11)-SRIF-14 radioligand, CHO-K1 membranes; more active isomer. The method, then:
The receptor-ligand binding assays of all 5 subtype of SSTRs were performed with membranes isolated from Chinese hamster ovary (CHO)-K1 cells stably expressing the cloned human somatostatin receptors in 96-well format as previous reported. (Yang et al. PNAS 95:10836-10841, 1998, Birzin et al. Anal. Biochem. 307:159-166, 2002.) The stable cell lines for SSTR1-SSTR5 were developed by stably transfecting with DNA for all five SSTRs using Lipofectamine. Neomycin-resistant clones were selected and maintained in medium containing 400 μg/mL G418 (Rohrer et al. Science 282:737-740, 1998).
Binding assays were performed using (3-^125I-Tyr11)-SRIF-14 as the radioligand (used at 0.1 nM) and The Packard Unifilter assay plate. The assay buffer consisted of 50 mM TrisHCl (pH 7.8) with 1 mM EGTA, 5 mM MgCl2, leupeptin (10 μg/mL), pepstatin (10 μg/mL), bacitracin (200 μg/mL), and aprotinin (0.5 μg/mL). CHO-K1 cell membranes, radiolabeled somatostatin, and unlabeled test compounds were resuspended or diluted in this assay buffer. Unlabeled test compounds were examined over a range of concentrations from 0.01 nM to 10,000 nM. The Ki values for compounds were determined as described by Cheng and Prusoff Biochem Pharmacol. 22:3099-3108 (1973).

Assay [2] addresses T1, human SSTR3. Description: SSTR3 functional antagonist assay (cAMP, FSK + SS-14, CHO cells). The note with it: 3.5 μM FSK + 100 nM SS-14; more active isomer. The format is cell-based. The method, then:
The effects of compounds that bind to human and murine SSTR3 with various affinities on the functional activity of the receptor were assessed by measuring cAMP production in the presence of Forskolin (FSK) along or FSK plus SS-14 in SSTR3 expressing CHO cells. FSK acts to induce cAMP production in these cells by activating adenylate cyclases, whereas SS-14 suppresses cAMP production in the SSTR3 stable cells by binding to SSTR3 and the subsequent inhibition of adenylate cyclases via an alpha subunit of GTP-binding protein (Gαi).
To measure the antagonism activity of the compounds, we pre-incubated the human or mouse SSTR3 stable CHO cells with the compounds for 15 rain, followed by a one-hour incubation of the cells with a mixture of 3.5 μM FSK+100 nM SS-14 (in the continuous presence of the compounds). The amount of cAMP produced during the incubation was also quantified with the Lance cAMP assay. The antagonism activity of each compound was reflected both by % Inhibition (its maximum ability to block the action of SS-14) and an EC50 value which is the concentration of the test compound required to suppress the effect of 100 nM SS-14 by 50%. The % Inhibition of each compound was calculated using the following formula: % Inhibition=[1−(unknown cAMP/FSK+SS-14 cAMP)]×100

Assay [3] has as its target hERG potassium ion channel (Homo sapiens (Human), UniProt Q12809). Description: MK-499 binding. To be noted: more active isomer.
In assay [4] the target is T1, human SSTR3. Description: SSTR3 binding Scintillation Proximity Assay (SPA). The note with it: 125I-SS14 radioligand, CHO-K1 membranes; more active isomer. The method, then:
The receptor-ligand binding Scintillation Proximity Assay (SPA) (N. D. Cook. Drug Discovery Today 1 (1996), pp. 287-294) for SSTR3 was performed with membranes isolated from Chinese hamster ovary (CHO)-K1 cells stably expressing the cloned human somatostatin receptors. Binding assays were performed in 384 well format using ^125I-SS14 as the radioligand for SSTR3. The assay buffer consisted of 50 mM TrisHCl (pH 7.8) with 1 mM EGTA, 5 mM MgCl2, leupeptin (10 μg/mL), pepstatin (10 μg/mL), bacitracin (200 μg/mL), and aprotinin (0.5 μg/mL). CHO-K1 cell membranes were prebound to SPA beads and incubated with unlabelled test compounds and radiolabeled somatostatin in assay buffer. After 5 hours at room temperature, cpm/well was determined. Test compounds were examined in 10 point titrations over a range of concentrations from 0.00001 nM to 1200 nM. Percent inhibition was determined for each data point using binding in the presence of DMSO as the maximum achievable value. The results were plotted using 4 parameter fit and the inflection point reflecting 50% of the maximum inhibition was reported as the IC50.
(SPA uses beads or plates that emit light when radiolabelled molecules are held near them.)

Structures are written as SMILES.

In general, Ki refers to a measure of affinity in units of concentration, obtained from inhibition or displacement. Usually EC50 stands for the concentration at which the effect is half-maximal. As a reminder, the IC50 is the concentration needed to halve the response being measured.

T1 sequence (P32745 whole entry): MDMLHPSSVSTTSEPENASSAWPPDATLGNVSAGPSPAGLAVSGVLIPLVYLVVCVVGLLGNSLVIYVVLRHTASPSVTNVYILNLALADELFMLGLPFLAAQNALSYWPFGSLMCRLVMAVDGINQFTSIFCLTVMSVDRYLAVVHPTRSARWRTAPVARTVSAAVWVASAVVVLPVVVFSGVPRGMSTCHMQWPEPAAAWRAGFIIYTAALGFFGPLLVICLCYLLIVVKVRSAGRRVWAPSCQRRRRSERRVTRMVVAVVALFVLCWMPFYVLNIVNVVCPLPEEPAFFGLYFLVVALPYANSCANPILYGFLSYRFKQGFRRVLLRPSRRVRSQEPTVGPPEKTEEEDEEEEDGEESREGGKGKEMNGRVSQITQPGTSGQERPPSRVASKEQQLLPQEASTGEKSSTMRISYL
hERG potassium ion channel, sequence (Q12809 whole entry): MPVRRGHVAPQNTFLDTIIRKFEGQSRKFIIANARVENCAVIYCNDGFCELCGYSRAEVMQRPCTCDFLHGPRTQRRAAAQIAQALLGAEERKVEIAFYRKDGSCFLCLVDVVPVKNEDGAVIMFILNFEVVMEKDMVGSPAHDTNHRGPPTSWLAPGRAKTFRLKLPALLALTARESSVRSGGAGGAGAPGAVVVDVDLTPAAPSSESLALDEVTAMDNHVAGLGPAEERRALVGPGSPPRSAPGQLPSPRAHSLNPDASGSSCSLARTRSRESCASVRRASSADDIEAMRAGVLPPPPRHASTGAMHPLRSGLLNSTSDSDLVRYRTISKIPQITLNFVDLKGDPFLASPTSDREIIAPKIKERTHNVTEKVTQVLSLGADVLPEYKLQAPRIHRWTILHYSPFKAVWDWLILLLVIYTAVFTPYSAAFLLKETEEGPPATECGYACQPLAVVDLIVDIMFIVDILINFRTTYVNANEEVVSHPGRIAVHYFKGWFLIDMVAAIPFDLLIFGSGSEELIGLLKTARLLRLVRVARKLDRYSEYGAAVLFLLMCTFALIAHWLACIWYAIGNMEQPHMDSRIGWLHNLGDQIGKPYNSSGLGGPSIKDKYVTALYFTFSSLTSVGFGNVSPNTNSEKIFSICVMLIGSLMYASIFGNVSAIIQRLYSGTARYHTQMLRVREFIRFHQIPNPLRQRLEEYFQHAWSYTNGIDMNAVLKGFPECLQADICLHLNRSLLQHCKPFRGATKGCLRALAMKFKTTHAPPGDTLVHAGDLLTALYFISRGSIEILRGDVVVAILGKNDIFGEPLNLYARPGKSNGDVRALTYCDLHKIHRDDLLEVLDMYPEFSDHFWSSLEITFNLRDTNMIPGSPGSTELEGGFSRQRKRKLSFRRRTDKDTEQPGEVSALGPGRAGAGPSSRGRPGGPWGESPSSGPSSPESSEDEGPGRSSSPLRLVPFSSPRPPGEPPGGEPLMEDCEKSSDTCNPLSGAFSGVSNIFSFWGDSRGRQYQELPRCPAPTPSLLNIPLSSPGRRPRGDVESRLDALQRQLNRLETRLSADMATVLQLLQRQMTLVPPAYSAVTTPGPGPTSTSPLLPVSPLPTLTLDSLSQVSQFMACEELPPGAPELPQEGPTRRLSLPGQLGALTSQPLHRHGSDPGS

The molecule `COCCOCC1(c2nnc(C)o2)N[C@@H](c2nc(-c3ccc(F)c(C)n3)c[nH]2)Cc2c1[nH]c1ccccc21` (stereo partly shown) [Example 12] came in with a Ki on human SSTR3 [1] of 0.4 nM. The EC50 at human SSTR3 [2] worked out at 1 nM. In assay [3], the 50% inhibitory concentration (IC50) was 27700 nM.

On human SSTR3 [1], `CCOCC1(c2nnc(C(C)C)o2)N[C@@H](c2nc(-c3ccc(F)cn3)c[nH]2)Cc2c1[nH]c1ccccc21` (stereo partly shown) [Example 9] displayed an inhibition constant Ki of 2.5 nM. Also, the EC50 at human SSTR3 [2] was determined as 5.1 nM. The molecule also showed an IC50 in assay [3] of 20200 nM.

`CCOCC1(c2nnc(CCOC)o2)N[C@@H](c2nc(-c3ccc(F)c(C)n3)c[nH]2)Cc2c1[nH]c1ccccc21` (stereo partly shown) [Example 7] came in with an inhibition constant Ki at human SSTR3 [1] of 0.9 nM. Also, on human SSTR3 [2], the EC50 came out at 0.9 nM. This molecule yielded an IC50 in assay [3] of 23200 nM.

On human SSTR3 [1], `CCOCC1(c2nnc(C(C)(C)C)o2)N[C@@H](c2nc(-c3ccc(F)cn3)c[nH]2)Cc2c1[nH]c1ccccc21` (stereo partly shown) [Example 6] returned an inhibitory constant (Ki) of 2.6 nM. Also, the EC50 at human SSTR3 [2] was 2.5 nM. In assay [3], this molecule displayed an IC50 of 17900 nM.

Regarding `[2H]C([2H])([2H])COCC1(c2nnc(C)o2)N[C@@H](c2nc(-c3ccc(F)c(C)n3)c[nH]2)Cc2c1[nH]c1ccccc21` (stereo partly shown) [Example 16], the Ki on human SSTR3 [1] is 0.6 nM. Moreover, at human SSTR3 [2], the EC50 is 8.5 nM. Moreover, the IC50 in assay [3] turned out to be 22300 nM.

For the molecule `COCCOCC1(c2nnc(C(C)(C)C)o2)N[C@@H](c2nc(-c3ccc(F)cn3)c[nH]2)Cc2c1[nH]c1ccccc21` (stereo partly shown) [Example 8], the affinity at human SSTR3 [1] corresponds to a Ki of 1.4 nM. At human SSTR3 [2], the 50% effective concentration (EC50) was found to be 3.7 nM. This molecule also gave an IC50 in assay [3] of 19700 nM.

Consider `CCOCC1(c2nnc(CCOC)o2)N[C@@H](c2nc(-c3ccc(F)cn3)c[nH]2)Cc2c1[nH]c1ccccc21` (stereo partly shown) [Example 5], for which the affinity at human SSTR3 [1], expressed as Ki, was 2.7 nM. Further, on human SSTR3 [2], the concentration giving a half-maximal response (EC50) turned out to be 3.5 nM. In addition, in assay [3], the IC50 was determined as 16500 nM.

`COCCOCC1(c2nnc(C3CCOCC3)o2)N[C@@H](c2nc(-c3ccc(F)cn3)c[nH]2)Cc2c1[nH]c1ccccc21` (stereo partly shown) [Example 10] came in with a Ki at human SSTR3 [1] of 2.7 nM. Also, the EC50 on human SSTR3 [2] was 2.4 nM. Moreover, in assay [3], the half-inhibitory concentration (IC50) amounted to 23400 nM.

Molecule `CCOCC1(c2nnc(C(C)C)o2)N[C@@H](c2nc(-c3ccc(F)c(C)n3)c[nH]2)Cc2c1[nH]c1ccccc21` (stereo partly shown) [Example 14] registered a Ki at human SSTR3 [1] of 0.4 nM. In addition, the EC50 on human SSTR3 [2] amounted to 1.3 nM. Besides, the IC50 in assay [3] came out at 18600 nM.

Take `Cc1nnc(C2(C3CCCCO3)N[C@@H](c3nc(-c4ccc(F)c(C)n4)c[nH]3)Cc3c2[nH]c2ccccc32)o1` (stereo partly shown) [Example 21]: the IC50 at human SSTR3 [4] amounted to 1.7 nM; in assay [3] it was 14600 nM. Further, the EC50 on human SSTR3 [2] came out at 3.1 nM.

Take `Cc1nc(-c2c[nH]c([C@H]3Cc4c([nH]c5ccccc45)C(c4nnc(C(C)C)o4)(C4CCOCC4)N3)n2)ccc1F` (stereo partly shown) [Example 19]: on human SSTR3 [1], the Ki was 0.6 nM. Also, the EC50 at human SSTR3 [2] worked out at 0.7 nM. In assay [3], the IC50 was determined as 16000 nM.

At human SSTR3 [1], `COC1CC(C2(c3nnc(C)o3)N[C@@H](c3nc(-c4ccc(F)c(C)n4)c[nH]3)Cc3c2[nH]c2ccccc32)C1` (stereo partly shown) [Example 17] yielded a Ki of 1.8 nM. For the same molecule, the EC50 at human SSTR3 [2] was 1.7 nM. The IC50 in assay [3] was 21600 nM.

At human SSTR3 [1], `CCOCC1(c2nnc(C3(C)CCCO3)o2)N[C@@H](c2nc(-c3ccc(F)c(C)n3)c[nH]2)Cc2c1[nH]c1ccccc21` (stereo partly shown) [Example 11] registered a Ki of 0.5 nM. In addition, the EC50 on human SSTR3 [2] worked out at 0.7 nM. For the same molecule, the IC50 in assay [3] stood at 19200 nM.

On to `COC1CCC(C2(c3nnc(C)o3)NC(c3nc(-c4ccc(F)c(C)n4)c[nH]3)Cc3c2[nH]c2ccccc32)CC1` (stereo not shown) [Example 18], for which the Ki on human SSTR3 [1] came out at 0.3 nM. In addition, the EC50 on human SSTR3 [2] turned out to be 0.6 nM. The IC50 in assay [3] was determined as 17500 nM.

At human SSTR3 [1], `COCCOCC1(c2nnc(C(C)C)o2)N[C@@H](c2nc(-c3ccc(F)c(C)n3)c[nH]2)Cc2c1[nH]c1ccccc21` (stereo partly shown) [Example 15] yielded a Ki of 0.4 nM. The EC50 at human SSTR3 [2] came out at 0.6 nM. The molecule also gave an IC50 in assay [3] of 19200 nM.

Take `Cc1nnc(C2(C3CCCO3)N[C@@H](c3nc(-c4ccc(F)c(C)n4)c[nH]3)Cc3c2[nH]c2ccccc32)o1` (stereo partly shown) [Example 20]: the Ki on human SSTR3 [1] was 0.9 nM. In addition, the IC50 at human SSTR3 [4] was 4.6 nM; in assay [3], 17000 nM. The EC50 at human SSTR3 [2] was found to be 4 nM.

As for `[2H]C([2H])([2H])OC1CC2C(C1)C2C1(c2nnc(C)o2)N[C@@H](c2nc(-c3ccc(F)c(C)n3)c[nH]2)Cc2c1[nH]c1ccccc21` (stereo partly shown) [Example 22], the IC50 at human SSTR3 [4] came out at 1.2 nM; in assay [3] it was 22800 nM. The EC50 on human SSTR3 [2] turned out to be 1.57 nM.

For `COCCOCC1(c2nnc(C3CCOCC3)o2)N[C@@H](c2nc(-c3ccc(F)c(C)n3)c[nH]2)Cc2c1[nH]c1ccccc21` (stereo partly shown) [Example 13], the Ki on human SSTR3 [1] is 0.5 nM. Also, the EC50 at human SSTR3 [2] was determined as 0.5 nM. The molecule further showed an IC50 in assay [3] of 19600 nM.

The values are drawn from patent US8754099B2, “Oxadiazole beta carboline derivatives as antidiabetic compounds” (Merck Sharp & Dohme Corp, priority 2010, dated 2014).
